# Source: ChEMBL document CHEMBL5584269 (Bioorg Med Chem Lett, 2024)
# Active and inactive are the calls of the source. No cut-off for these calls is given here.
# Columns and labels:
# [1] = test system: HeLa; assay: Cytotoxicity against human HeLa cells incubated for 72 hrs by alamar blue cell viability assay; format: functional, cell-based
# [2] = test system: Trypanosoma brucei; assay: Antitrypanosomal activity against bloodstream trypomastigote form of Trypanosoma brucei Lister 427 assessed as reduction in parasite growth incubated for 72 hrs by alamar blue dye based fluorescence analysis; format: functional, organism-based; conditions: Lister 427, 72 h
# [3] = test system: Trypanosoma cruzi; assay: Antitrypanosomal activity against epimastigote form of Trypanosoma cruzi CL Brener assessed as reduction in parasite growth incubated for 72 hrs by alamar blue dye based fluorescence analysis; format: functional, organism-based
# [4] = test system: Leishmania major; assay: Antileishmanial activity against promastigote form of Leishmania major Freidlin assessed as reduction in parasite growth incubated for 72 hrs by alamar blue dye based fluorescence analysis; format: functional, organism-based
# [5] = test system: Leishmania donovani; assay: Antileishmanial activity against promastigote form of Leishmania donovani assessed as reduction in parasite growth incubated for 72 hrs by alamar blue dye based fluorescence analysis; format: functional, organism-based
# [6] = test system: Leishmania donovani; assay: Antileishmanial activity against Leishmania donovani axenic amastigotes assessed as reduction in parasite growth incubated for 72 hrs by alamar blue dye based fluorescence analysis; format: functional, organism-based
# [7] = test system: Leishmania donovani; assay: Antileishmanial activity against Leishmania donovani amastigotes infected in human THP-1 cells assessed as reduction in parasite growth incubated for 72 hrs by alamar blue dye based fluorescence analysis; format: functional, organism-based; conditions: THP-1, 72 h
# [8] = test system: THP-1; assay: Cytotoxicity against human THP-1 cells incubated for 72 hrs by alamar blue cell viability assay; format: functional, cell-based; conditions: THP-1, 72 h
# [9] = test system: Leishmania major; assay: Induction of morphological change in promastigote form of Leishmania major Freidlin assessed as increase in intracellular vesicles at EC10 incubated for 48 hrs by DAPI staining based immunofluorescence analysis; format: functional, organism-based
# [10] = test system: Trypanosoma brucei; assay: Induction of morphological change in bloodstream trypomastigote form of Trypanosoma brucei Lister 427 assessed as reduction in cytokinesis at EC10 incubated for 48 hrs by DAPI staining based immunofluorescence analysis; format: functional, organism-based
# [11] = test system: Trypanosoma brucei; assay: Induction of morphological change in bloodstream trypomastigote form of Trypanosoma brucei Lister 427 assessed as appearance of swollen cells at EC10 incubated for 48 hrs by DAPI staining based immunofluorescence analysis; format: functional, organism-based
# [12] = Selectivity ratio of EC50 for antileishmanial activity against Leishmania donovani amastigotes infected in human THP-1 cells to EC50 for cytotoxicity against human THP-1 cells; format: functional
smiles,measurement,setting,value
CC(C)C(=O)N1CCC[C@@H]1C(=O)O,EC50,[1],> 250 µM
same,EC50,[2],9.9 µM
same,EC50,[3],59.7 µM
same,EC50,[4],4.11 µM
same,EC50,[5],4.8 µM
CSCCC(=O)N1CCC[C@H]1C(=O)O,EC50,[1],> 250 µM
same,EC50,[2],28.2 µM
same,EC50,[3],35.2 µM
same,EC50,[4],16.8 µM
same,EC50,[5],13.5 µM
COC(=O)[C@H]1CCCN1C(=O)CCSCc1ccccc1,EC50,[1],> 250 µM
same,EC50,[2],4.11 µM
same,EC50,[3],60.2 µM
same,EC50,[4],35.7 µM
same,EC50,[5],33.9 µM
CC(C)CC(=O)N1CCC[C@@H]1C(=O)O,EC50,[1],> 250 µM
same,EC50,[2],1.92 µM
same,EC50,[3],39.6 µM
same,EC50,[4],2.77 µM
same,EC50,[5],1.42 µM
O=C(O)[C@H]1CCCN1C(=O)CCS,EC50,[1],> 250 µM
same,EC50,[2],16.7 µM
same,EC50,[3],18.2 µM
same,EC50,[4],6.06 µM
same,EC50,[5],4.59 µM
CC1CS(=O)(=O)CCN1/N=C/c1ccc([N+](=O)[O-])o1 (stereo not given) [NIFURTIMOX],EC50,[3],3.11 µM
COC(=O)[C@@H]1CCCN1C(=O)[C@H](C)CSC,EC50,[1],> 250 µM
same,EC50,[2],13.2 µM
same,EC50,[3],15.6 µM
same,EC50,[4],5.3 µM
same,EC50,[5],2.04 µM
COC(=O)[C@H]1CCCN1C(=O)Cc1ccccc1,EC50,[1],> 250 µM
same,EC50,[2],> 200 µM
same,EC50,[3],> 200 µM
same,EC50,[4],101 µM
same,EC50,[5],95.2 µM
COC(=O)[C@@H]1CCCN1C(=O)CC(C)C,EC50,[6],0.97 µM
same,EC50,[1],> 250 µM
same,EC50,[2],1.95 µM
same,EC50,[3],14.2 µM
same,EC50,[4],1.97 µM
same,EC50,[5],1.63 µM
same,EC50,[7],2.23 µM
same,EC50,[8],> 250 µM
same,Activity,[9],Active
same,Activity,[10],Active
same,Activity,[11],Active
same,Ratio EC50,[12],50
C[C@H](CS)C(=O)N1CCC[C@H]1C(=O)O [CAPTOPRIL],EC50,[1],130 µM
same,EC50,[2],22.9 µM
same,EC50,[4],12.4 µM
same,EC50,[5],9.41 µM
COC(=O)[C@@H]1CCCN1C(=O)Cc1ccccc1,EC50,[1],> 250 µM
same,EC50,[2],38 µM
same,EC50,[3],44.1 µM
same,EC50,[4],12.4 µM
same,EC50,[5],11.7 µM
CSC[C@@H](C)C(=O)N1CCC[C@H]1C(=O)O,EC50,[6],2.14 µM
same,EC50,[1],> 250 µM
same,EC50,[2],26.3 µM
same,EC50,[3],30.2 µM
same,EC50,[4],11.6 µM
same,EC50,[5],8.64 µM
same,EC50,[7],4.21 µM
same,EC50,[8],> 250 µM
same,Ratio EC50,[12],50
O=C(O)[C@@H]1CCCN1C(=O)CCS,EC50,[1],> 250 µM
same,EC50,[2],28.4 µM
same,EC50,[3],20.8 µM
same,EC50,[4],9.88 µM
same,EC50,[5],7.15 µM
CSCCC(=O)N1CCC[C@@H]1C(=O)O,EC50,[1],> 250 µM
same,EC50,[2],9.7 µM
same,EC50,[3],39.1 µM
same,EC50,[4],4.81 µM
same,EC50,[5],4.27 µM
CC(C)CC(=O)N1CCC[C@H]1C(=O)O,EC50,[1],> 250 µM
same,EC50,[2],2.46 µM
same,EC50,[3],17.4 µM
same,EC50,[4],2.26 µM
same,EC50,[5],2.03 µM
COC(=O)[C@H]1CCCN1C(=O)CC(C)C,EC50,[6],0.87 µM
same,EC50,[1],> 250 µM
same,EC50,[2],1.44 µM
same,EC50,[3],37.1 µM
same,EC50,[4],2.04 µM
same,EC50,[5],1.09 µM
same,EC50,[7],2.05 µM
same,EC50,[8],> 250 µM
same,Ratio EC50,[12],50
COC(=O)[C@@H]1CCCN1C(=O)CCS,EC50,[1],> 250 µM
same,EC50,[2],20.3 µM
same,EC50,[3],14.9 µM
same,EC50,[4],7.02 µM
same,EC50,[5],5.77 µM
CCCCCCCCCCCCCCCCOP(=O)([O-])OCC[N+](C)(C)C [MILTEFOSINE],EC50,[6],2.67 µM
same,EC50,[4],5.31 µM
same,EC50,[5],5.82 µM
same,EC50,[7],5.97 µM
same,EC50,[8],> 250 µM
COC(=O)[C@H]1CCCN1C(=O)C(C)(C)C,EC50,[1],> 250 µM
same,EC50,[2],96.7 µM
same,EC50,[3],73.5 µM
same,EC50,[4],39.9 µM
same,EC50,[5],34.7 µM
O=C(O)[C@H]1CCCN1C(=O)Cc1ccccc1,EC50,[1],> 250 µM
same,EC50,[2],> 200 µM
same,EC50,[3],> 200 µM
same,EC50,[4],104 µM
same,EC50,[5],98.4 µM
O=C(O)[C@@H]1CCCN1C(=O)Cc1ccccc1,EC50,[1],> 250 µM
same,EC50,[2],40.8 µM
same,EC50,[3],46.5 µM
same,EC50,[4],14.5 µM
same,EC50,[5],13.8 µM
O=C(O)[C@H]1CCCN1C(=O)CCSCc1ccccc1,EC50,[1],> 250 µM
same,EC50,[2],5.9 µM
same,EC50,[3],71.2 µM
same,EC50,[4],39.6 µM
same,EC50,[5],39.8 µM
COC(=O)[C@@H]1CCCN1C(=O)[C@H](C)CS,EC50,[1],> 250 µM
same,EC50,[2],15.2 µM
same,EC50,[3],22.7 µM
same,EC50,[4],7.29 µM
same,EC50,[5],2.81 µM
CC(C)(C)C(=O)N1CCC[C@H]1C(=O)O,EC50,[1],> 250 µM
same,EC50,[2],61.5 µM
same,EC50,[3],70.9 µM
same,EC50,[4],20.4 µM
same,EC50,[5],19.9 µM
COC(=O)[C@@H]1CCCN1C(=O)CCSC,EC50,[6],1.86 µM
same,EC50,[1],> 250 µM
same,EC50,[2],12.4 µM
same,EC50,[3],19.5 µM
same,EC50,[4],2.46 µM
same,EC50,[5],2.02 µM
same,EC50,[7],4.67 µM
same,EC50,[8],> 250 µM
same,Ratio EC50,[12],50
COC(=O)[C@@H]1CCCN1C(=O)C(C)C,EC50,[1],> 250 µM
same,EC50,[2],9.85 µM
same,EC50,[3],53.9 µM
same,EC50,[4],4.51 µM
same,EC50,[5],7.02 µM
CC(C)(C)C(=O)N1CCC[C@@H]1C(=O)O,EC50,[1],> 250 µM
same,EC50,[2],106 µM
same,EC50,[3],80.2 µM
same,EC50,[4],48.1 µM
same,EC50,[5],41.2 µM
N=C(N)c1ccc(OCCCCCOc2ccc(C(=N)N)cc2)cc1 [PENTAMIDINE],EC50,[2],0.002 µM
O=C(O)[C@@H]1CCCN1C(=O)CCSCc1ccccc1,EC50,[1],120 µM
same,EC50,[2],14.8 µM
same,EC50,[3],19.9 µM
same,EC50,[4],3.16 µM
same,EC50,[5],2.58 µM
COC(=O)[C@H]1CCCN1C(=O)C(C)C,EC50,[1],> 250 µM
same,EC50,[2],7.52 µM
same,EC50,[3],54.1 µM
same,EC50,[4],3.3 µM
same,EC50,[5],3.58 µM
COC(=O)[C@@H]1CCCN1C(=O)C(C)(C)C,EC50,[1],> 250 µM
same,EC50,[2],58.3 µM
same,EC50,[3],66.4 µM
same,EC50,[4],14.5 µM
same,EC50,[5],17.1 µM
COC(=O)[C@@H]1CCCN1C(=O)[C@H](C)CSCc1ccccc1,EC50,[1],> 250 µM
same,EC50,[2],32.9 µM
same,EC50,[3],30 µM
same,EC50,[4],8.65 µM
same,EC50,[5],3.98 µM
C[C@H](CSCc1ccccc1)C(=O)N1CCC[C@H]1C(=O)O,EC50,[1],> 250 µM
same,EC50,[2],38.6 µM
same,EC50,[3],40.1 µM
same,EC50,[4],16.8 µM
same,EC50,[5],10.1 µM
COC(=O)[C@H]1CCCN1C(=O)CCSC,EC50,[1],> 250 µM
same,EC50,[2],5.94 µM
same,EC50,[3],33.6 µM
same,EC50,[4],3.1 µM
same,EC50,[5],2.68 µM
CC(C)C(=O)N1CCC[C@H]1C(=O)O,EC50,[1],> 250 µM
same,EC50,[2],12.2 µM
same,EC50,[3],61.5 µM
same,EC50,[4],5.52 µM
same,EC50,[5],8.07 µM
